Source: patent publication US12145947B2, “Pyrimidine based modulators and uses thereof” (Quanta Therapeutics, Inc., priority 2022, dated 2024)

Key:
[1] = target: T1, GST-tagged KRAS-G12D (2-169) (Homo sapiens, UniProt P01116, G12D); assay: Nucleotide exchange assay (NEA), SOS-mediated, HTRF, KRAS G12D; assay type: biochemical; details: Table 4; IC50 extracted at 30 min
T1 construct: GST-tagged KRAS-G12D (2-169, Reaction Biology, MSC-11-539); purchased Reaction Biology MSC-11-539 (KRAS G12D); MSC-11-502 (SOS1cat)
T1 sequence (P01116 2-169 isoform P01116-2 G12D): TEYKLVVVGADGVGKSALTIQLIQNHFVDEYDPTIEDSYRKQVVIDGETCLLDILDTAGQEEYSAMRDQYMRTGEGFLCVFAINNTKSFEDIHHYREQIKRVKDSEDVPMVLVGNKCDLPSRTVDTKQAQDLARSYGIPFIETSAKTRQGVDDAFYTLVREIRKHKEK
From the text: This activity is tightly regulated by GTPase activating proteins (GAPs) and guanine nucleotide exchange factors (GEFs). GEFs, such as SOS1/2, activate Ras proteins by exchanging GDP for GTP, thus returning Ras to its active conformation (Simanshu, Nissley, & McCormick, 2017). […] Homogenous time resolved fluorescence (HTRF) was used to detect SOS-mediated binding of a fluorescent GTP analog, GTP-DY-647P1 (Jena Biosciences NU-820-647P1) to GST-tagged KRAS-G12D (2-169, Reaction Biology, MSC-11-539) or to GST-tagged KRAS-G12V (2-169, Reaction Biology, MSC-11-540).
GST-tagged KRAS-G12D (2-169) and anti-GST MAb Tb Cryptate Gold (CisBio 61GSTTLB) were diluted into assay buffer (20 mM HEPES, pH 7.3, 150 mM NaCl, 5 mM MgCl2, 0.05% BSA 0.0025% NP40, 1 mM DTT) to prepare a 2.5× donor solution. 5× compound was added to the protein mixture and incubated for 1 h at RT. 2.5× acceptor solution containing SOSIcat (564-1049, Reaction Biology MSC-11-502) and GTP-DY-647P1 were then added to the donor KRAS mixture such that the final concentration of the reaction contained 5 nM GST-tagged KRAS-G12D (2-169), 20 nM SOScat, and 150 nM GTP. The reaction was monitored using at RT with the Envision multimode plate reader (Ex/Em 337/665, […]) up to 90 minutes at 5 minute intervals. To monitor KRAS-G12V Sos-mediated nucleotide exchange, 80 nM SOS was added to reaction instead of 20 nM. All other components were the same as previously described. Data was blanked to reactions without SOS1 and % inhibition was calculated such that DMSO only=0% and blank=100%. Curve fitting was done using a 4 parameter fit. Reported IC50 values were extracted at 30 min and 90 min for the KRAS-G12D and KRAS-G12V assays, respectively.
Curve fitting was done using a 4 parameter fit. NEA KRAS G12D IC50 (uM) values of selected compounds are depicted in Table 2 with compounds having a value <0.01 uM as ++++; >0.01 uM to 0.1 uM as +++; >0.1 uM to 1 uM as ++; >1 uM to 20 uM as +; and >20 uM as NA.

KRAS G12D/RAF1 = target: T2, KRAS G12D/RAF1 (Homo sapiens, UniProt P01116, G12D); assay: Protein-protein interaction (PPI) HTRF assay KRAS G12D/RAF1; assay type: binding; details: Table 4
T2 construct: His6-MBP (N, cleaved yes); made in house; host or cells: E. coli
T2 sequence (P01116 with tags, fused parts or gaps isoform P01116-2 G12D): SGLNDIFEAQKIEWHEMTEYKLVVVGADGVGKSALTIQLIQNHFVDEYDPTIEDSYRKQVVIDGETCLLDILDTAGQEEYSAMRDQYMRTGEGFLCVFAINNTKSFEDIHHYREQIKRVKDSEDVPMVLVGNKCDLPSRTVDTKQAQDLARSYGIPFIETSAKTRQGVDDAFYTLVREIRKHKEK
Experimental: Biotinylated KRAS wt and KRAS G12DNV proteins were expressed and purified in conditions similar to those previously reported (Tran, et al., 2021) (Zhang, et al., 2020). Briefly, KRAS (1-169) proteins were expressed in E. coli at 18° C. with an upstream TEV cleavage site (ENLFYQS (SEQ ID NO: 6)) followed an Avi tag sequence ([…] (SEQ ID NO: 7)). KRAS expression constructs contained both a His6 (SEQ ID NO: 8) and maltose-binding protein (MBP) tags at the N-terminus for Ni-NTA column purification prior to overnight TEV cleavage and MBP column purification. The avi-tagged NRAS expression construct contained both a His6 tag (SEQ ID NO: 8) and SUMO cleavage sige at the N-terminus for Ni-NTA column purification followed by His-ULPi digestion overnight. All avi-tagged RAS proteins were dialyzed into buffer containing ATP, biotin, and BirA followed by purification over a second Ni-NTA column and then run over a size exclusion HiLoad™ 26/600 Superdex™ column in 20 mM HEPES, pH 7.5, 300 mM NaCl, 5 mM MgCl2, and 1 mM TCEP. Fractions containing the protein of interest were pooled, concentrated, and confirmed by intact mass spectrometry. To prepare ‘GTP’ loaded KRAS and NRAS, biotinylated KRAS or NRAS was nucleotide exchanged from GDP-bound protein to GppNHp-bound (Jena Biosciences, NU-401-50) protein in the presence of alkaline phosphatase and excess GppNHp as previously described and the resulting nucleotide content was confirmed by HPLC reverse phase analytical chromatography (Donohue, et al., 2019) (Tran, et al., 2021).
His-tagged RAF1 (52-131) was similarly expressed in E. coli at 18° C. overnight with an upstream TEV cleavage site. His-tagged RAF1 expression construct contained both a His6 (SEQ ID NO: 8) and MBP tags at the N-terminus for Ni-NTA column purification followed by MBP-tagged TEV digestion overnight. RAF1 protein samples were further purified over a MBP column followed by a Ni-NTA column and a second MBP column. The fractions containing the protein of interest were pooled, concentrated, and further purified over a HiLoad™ 16/600 Superdex™ 75 pg size exclusion column into 20 mM HEPES, pH8.0, 200 mM NaCl, 5 mM TCEP.
When RAS proteins are in the active GTP-bound conformation, they bind the effector protein RAF1 at the N-terminus Ras-binding domain (RBD, residues 52-131) (Tran, et al., 2021). Homogenous time resolved fluorescence (HTRF) was used to monitor the interaction between wt or mutant KRAS and RAF1 or wt NRAS and RAFT. Compounds were assayed in the presence of KRAS G12D/V and RAF1 versus wt KRAS to assess activity against mutant and w.t. KRAS. Similarly, compounds were then assayed in the presence of w.t. NRAS and RAF1 to assess RAS isoform selectivity. In all assay formats, His-tagged RAF1 protein was incubated with the HTRF donor, anti-6His (“6His” disclosed as SEQ ID NO: 8) Tb Cryptate gold (Cisbio 61DB10RDF), and biotinylated RAS proteins were incubated with the HTRF acceptor, streptavidin-d2 (CisBio 610SADLA). The intensity of the fluorescence signal emitted is proportional to binding between the two proteins. The donor solution was prepared by mixing 16 nM His-tagged RAF1 in protein dilution buffer with 1:100 anti-6His (“6His” disclosed as SEQ ID NO: 8) Tb cryptate in PPI-Terbium detection buffer. 16 nM biotinylated RAS protein was diluted into protein dilution buffer (50 mM Tris-HCl pH 7.5, 150 mM NaCl, 0.1 mM MgCl2, 1 mM TCEP, 0.005% Tween20) and mixed with 1:2000 Streptavidin-d2 diluted in PPI-Terbium detection buffer (CisBio 61DBTORDF). 50× compound in DMSO was mixed with 16 nM KRAS-acceptor solution and incubated for 30 minutes at room temperature. After compound pre-incubation with KRAS, the RAF1 donor solution was added to the KRAS-acceptor solution and incubated for 1 hour at room temperature. The fluorescence signal emitted was monitored at 665 nm and 615 nm using an Envision multimode plate reader. […]

N#Cc1c(N2CCn3nncc3C2)nc(OC[C@@]23CCCN2C[C@H](F)C3)nc1N1CC2(CCc3sc(N)c(C#N)c32)C1 [Compound 55, 2-amino-1′-[5-cyano-6-(6,7-dihydro-4H-triazolo[1,5-a]pyrazin-5-yl)-2-[[(2R,8S)-2-fluoro-1,2,3,5,6,7-hexahydropyrrolizin-8-yl]methoxy]pyrimidin-4-yl]spiro[5,6-dihydrocyclopenta[b]thiophene-4,3′-azetidine]-3-carbonitrile]
IC50 [1]: 100 to 1000 nM | IC50 (KRAS G12D/RAF1): 10000 to 100000 nM

CN(C)C(=O)c1nn2c(c1Cl)CN(c1nc(OC[C@@]34CCCN3C[C@H](F)C4)nc(N3CC4(C3)C(=O)CCc3ccccc34)c1C#N)CCC2 [Compound 36, 3-chloro-5-[5-cyano-2-[[(2R,8S)-2-fluoro-1,2,3,5,6,7-hexahydropyrrolizin-8-yl]methoxy]-6-(2′-oxospiro[azetidine-3,1′-tetralin]-1-yl)pyrimidin-4-yl]-N,N-dimethyl-4,6,7,8-tetrahydropyrazolo[1,5-a][1,4]diazepine-2-carboxamide]
IC50 [1]: 1000 to 20000 nM | IC50 (KRAS G12D/RAF1): > 100000 nM

C[C@@H]1COCCN1CC1(COc2nc(N3C[C@H]4CC[C@@H](C3)N4)c(C#N)c(N3CC4(CCc5sc(N)c(C#N)c54)C3)n2)CC1 [Compound 82, 2-amino-1′-[5-cyano-6-[(1R,5S)-3,8-diazabicyclo[3.2.1]octan-3-yl]-2-[[1-[[(3R)-3-methylmorpholin-4-yl]methyl]cyclopropyl]methoxy]pyrimidin-4-yl]spiro[5,6-dihydrocyclopenta[b]thiophene-4,3′-azetidine]-3-carbonitrile]
IC50 [1]: 100 to 1000 nM | IC50 (KRAS G12D/RAF1): 10000 to 100000 nM

N#Cc1c(N2C[C@H]3CC[C@@H](C2)N3)nc(OCC2(c3ccccc3)CC2)nc1N1CC2(CCc3sc(N)c(C#N)c32)C1 [Compound 84, 2-amino-1′-[5-cyano-6-[(1R,5S)-3,8-diazabicyclo[3.2.1]octan-3-yl]-2-[(1-phenylcyclopropyl)methoxy]pyrimidin-4-yl]spiro[5,6-dihydrocyclopenta[b]thiophene-4,3′-azetidine]-3-carbonitrile]
IC50 [1]: < 10 nM | IC50 (KRAS G12D/RAF1): 100 to 1000 nM

N#Cc1c(N2C[C@H]3CC[C@@H](C2)N3)nc(OCc2cc(Cl)[nH]n2)nc1N1CC2(CCc3sc(N)c(C#N)c32)C1 [Compound 105, 2-amino-1′-[2-[(5-chloro-1H-pyrazol-3-yl)methoxy]-5-cyano-6-[(1R,5S)-3,8-diazabicyclo[3.2.1]octan-3-yl]pyrimidin-4-yl]spiro[5,6-dihydrocyclopenta[b]thiophene-4,3′-azetidine]-3-carbonitrile]
IC50 [1]: < 10 nM | IC50 (KRAS G12D/RAF1): 10000 to 100000 nM

CN1CCC[C@H]1COc1nc(N2C[C@H]3CC[C@@H](C2)N3)c(C#N)c(N2CC3(CCc4sc(N)c(C#N)c43)C2)n1 [Compound 83, 2-amino-1′-[5-cyano-6-[(1R,5S)-3,8-diazabicyclo[3.2.1]octan-3-yl]-2-[[(2S)-1-methylpyrrolidin-2-yl]methoxy]pyrimidin-4-yl]spiro[5,6-dihydrocyclopenta[b]thiophene-4,3′-azetidine]-3-carbonitrile]
IC50 [1]: < 10 nM | IC50 (KRAS G12D/RAF1): 100 to 1000 nM

Cc1nc(COc2nc(N3C[C@H]4CC[C@@H](C3)N4)c(C#N)c(N3CC4(CCc5sc(N)c(C#N)c54)C3)n2)n[nH]1 [Compound 107, 2-amino-1′-[5-cyano-6-[(1R,5S)-3,8-diazabicyclo[3.2.1]octan-3-yl]-2-[(5-methyl-1H-1,2,4-triazol-3-yl)methoxy]pyrimidin-4-yl]spiro[5,6-dihydrocyclopenta[b]thiophene-4,3′-azetidine]-3-carbonitrile]
IC50 [1]: 10 to 100 nM | IC50 (KRAS G12D/RAF1): 10000 to 100000 nM

N#Cc1c(N2CCSc3ncccc3C2)nc(OC[C@@]23CCCN2C[C@H](F)C3)nc1N1CC2(CCc3sc(N)c(C#N)c32)C1 [Compound 111, 2-amino-1′-[5-cyano-6-(3,5-dihydro-2H-pyrido[3,2-f][1,4]thiazepin-4-yl)-2-[[(2R,8S)-2-fluoro-1,2,3,5,6,7-hexahydropyrrolizin-8-yl]methoxy]pyrimidin-4-yl]spiro[5,6-dihydrocyclopenta[b]thiophene-4,3′-azetidine]-3-carbonitrile]
IC50 [1]: 10 to 100 nM

N#Cc1c(N2CCCOCC2)nc(OC[C@@]23CCCN2C[C@H](F)C3)nc1N1CC2(CCc3sc(N)c(C#N)c32)C1 [Compound 110, 2-amino-1′-[5-cyano-2-[[(2R,8S)-2-fluoro-1,2,3,5,6,7-hexahydropyrrolizin-8-yl]methoxy]-6-(1,4-oxazepan-4-yl)pyrimidin-4-yl]spiro[5,6-dihydrocyclopenta[b]thiophene-4,3′-azetidine]-3-carbonitrile]
IC50 [1]: 10 to 100 nM

N#Cc1c(N2C[C@H]3CC[C@@H](C2)N3)nc(OCc2n[nH]cc2C(F)F)nc1N1CC2(CCc3sc(N)c(C#N)c32)C1 [Compound 109, 2-amino-1′-[5-cyano-6-[(1R,5S)-3,8-diazabicyclo[3.2.1]octan-3-yl]-2-[[4-(difluoromethyl)-1H-pyrazol-3-yl]methoxy]pyrimidin-4-yl]spiro[5,6-dihydrocyclopenta[b]thiophene-4,3′-azetidine]-3-carbonitrile]
IC50 [1]: 10 to 100 nM
